Reference: patent publication US7582681B2, “Synergistic mixtures of 1,2-alkane diols” (Symrise GmbH & Co. KG, priority 2002, dated 2009)
Values after ≈ are worked out from the molar mass of the structure shown.

Test system: Brevibacterium epidermidis ATCC 35514
Assay: MIC, agar dilution method
Format: cell-based
Conditions: ATCC35514, Mueller-Hinton agar, 18 h at 36° C.
Protocol: Petri dishes 9.0 cm in diameter were charged with 13.5 ml freshly prepared Mueller-Hinton agar (Merck, Ref. 1.05437 or Wilkins-Chalgren agar boullion, Oxoid, Ref. CM 643, supplemented with log agar-agar/liter) kept liquid at 50° C., to which the various concentrations of the diluted samples were added in 10% (V/V)=1.5 ml. Mueller-Hinton agar that contained 3% Tween80 (Merck, Ref. 8.22 187) was used for the test germ Malassezia furfur. In each case 5 ml of the samples were diluted in distilled water and made up to 10 ml. The further test concentrations of the particular dilution series, which were prepared in the form of geometric series, were prepared by progressive 1:2 dilution of this batch with distilled water. […] Two agar plates were poured per test concentration and nutrient medium. After solidification and drying (approx. 1 h at 37° C.), the test plates were inoculated in point form with, in each case, 1 μl of the test germ suspensions listed below. To check purity and identity the bacteria that grow aerobically (Brevibacterium epidermidis, Corynebacterium xerosis, Staphylococcus epidermidis) were [lacuna] on Columbia blood agar (BioMérieux, Ref. 43049). The mould Aspergillus niger, the yeast Candida albicans and the two skin fungi Trichophyton mentagrophytes and Epidermophyton floccosum were cultured on Sabouraud agar (BioMérieux, Ref. 43555). Malassezia furfur was cultured on Sabourad HLT agar with disinhibitors (addition of 3% Tween80: 1%; lecithin: 0.3%; histidine: 0.1%; Merck, Ref. 1.18368). Propionibacterium acnes was cultured on Schaedler agar (BioMérieux, Ref. 43273). Further details on the test germs can be taken from Table 5. The preparation of the test germ suspensions of the bacterial germs that grow aerobically was carried out by incubation of Mueller-Hinton broth (Merck, Ref. 1.10293) which had been inoculated with a few individual colonies of the relevant test germs, at 36° C. After a distinct turbidity had been obtained, sterile nutrient broth was added to the suspensions in such an amount that the turbidity thereof corresponded to McFarland standard 0.5 (approx. 1.5×10^8 CFU/ml). All test germ suspensions with the exception of Propionibacterium acnes were diluted again 1:10 with sterile broth and the germ count thereof was determined by the surface method using a Spiralometer (results: see Table 5). The MIC (minimum inhibitory concentration) was regarded as the lowest concentration of active compound at which macroscopically there is no growth. Minimal, barely visible growth or few small individual colonies were evaluated as inhibition.

MIC | SMILES
25 mg/mL (≈ 212 mM) | CCCCC(O)CO (centres unmarked) [HE3, 1,2-hexanediol]
3.12 mg/mL (≈ 21.4 mM) | CCCCCCC(O)CO (centres unmarked) [OC3, 1,2-octanediol]
